Test results: US20030228632A1, “Stable RXR expressing cell line” (Allergan Sales, Inc., priority 2000, published 2003)

How the values were obtained:
Assay type in all cases: cell-based, Rat
HircRXRα cells [1] = assay: Cell counts of HircRXRα cells after agonist treatment (FIG. 5); settings: 1 nM, four days of treatment
Protocol: (§1) The effect on cell growth was evaluated by plating either a HircB cells (as a control) or HircRXRα cells in 6 well plates with 0.5×10^5 cells per well in 10% FBS/DMEM/F12. The next day, the medium was replaced with a specified concentration of agonist, antagonist or both or with 0.1% DMSO in 10% FBS/DMEM/F12. Analyses were performed in triplicate.

HircRXRα cells [2] = assay: HircRXRα cell growth by MTT assay (FIGS. 6 and 7); settings: five days of treatment, FIG. 6
Protocol: as §1
After incubation with agonist for 2 days, the change in cell number and morphology in the various HircRXRα cell samples were observed under the microscope. Alternatively, cell growth was measured using the MTT assay using absorbance at 590 nm. Mosmann, T., et al., J Immunol. Meth. (1983) 65:55-62.
FIGS. 6 and 7 show effects of RXRα ligands on HircRXRα cell growth as determined when cell growth was assessed by the MTT assay.

HircB cells = assay: Cell counts of parental HircB cells after agonist treatment (FIG. 5); settings: 1 nM, four days of treatment
Protocol: as §1

HircRXRα cells [3] = assay: Cell growth of HircRXRα cells, direct microscopic observation; settings: 1 nM
Protocol: as §1
[…] Alternatively, cell growth was measured using the MTT assay using absorbance at 590 nm. Mosmann, T., et al., J Immunol. Meth. (1983) 65:55-62.

[4] = tested on: phosphorylated MEK in HircB cells; assay: Insulin stimulated phosphorylation of MEK in HircB cells (Western blot, FIG. 8); settings: 100 nM insulin, 0-30 minutes
Protocol: (§2) They were then incubated for various periods in the presence of 100 nM insulin and then lysed. Solubilized cell proteins were subjected to SDS-PAGE and transferred to nitrocellulose and immunoblotted using antibodies specific to phosphorylated forms of MEK and MAP kinase.
(§3) FIGS. 8 and 9 show the results. […] In the left panel, the parental HircB cell line was tested for phosphorylated MEK in the solubilized protein at 0 minutes (lane 1), 5 minutes (lane 2), 15 minutes (lane 3) and 30 minutes (lane 4) after treatment with 100 nM insulin.

[5] = tested on: phosphorylated MEK in HircRXRα cells; assay: Insulin stimulated phosphorylation of MEK in HircRXRα cells (Western blot, FIG. 8); settings: 100 nM insulin, 0-30 minutes
Protocol: as §2, §3

[6] = tested on: phosphorylated MAP-kinase in HircB cells; assay: Insulin stimulated phosphorylation of MAP kinase in HircB cells (Western blot, FIG. 9); settings: 100 nM insulin, up to 90 minutes
Protocol: as §2
(§4) Similar results are shown in FIG. 9 with respect to the phosphorylation of MAP-kinase in response to insulin.

[7] = tested on: phosphorylated MAP-kinase in HircRXRα cells; assay: Insulin stimulated phosphorylation of MAP kinase in HircRXRα cells (Western blot, FIG. 9); settings: 100 nM insulin, up to 90 minutes
Protocol: as §2, §4

Compound	growth (cell counts) relative to no agonist (HircRXRα cells [1])	effect on cell growth (MTT assay) (HircRXRα cells [2]; 1 nM)	effect on cell growth (MTT assay) (HircRXRα cells [2]; 100 nM)	effect on growth (cell counts) (HircB cells)	effect on cell growth (microscopic observation) (HircRXRα cells [3]; after four days)	effect on cell growth (microscopic observation) (HircRXRα cells [3]; after two days)	phosphorylated MEK after insulin treatment [4]	phosphorylated MEK after insulin treatment [5]	phosphorylated MAP-kinase after insulin treatment [6]	phosphorylated MAP-kinase after insulin treatment [7]
CC(/C=C/[C@@H]1C[C@]1(C)c1ccc2c(c1)C(C)(C)CCC2(C)C)=C\C(=O)O [AGN 4204]	approximately one-third	significant reduction in growth	further reduction in growth	no demonstrable effect	the reduction in growth was maintained	greatly reduced growth	–	–	–	–
insulin: insulin used at 100 nM to stimulate MEK and MAP kinase phosphorylation	–	–	–	–	–	–	diminished considerably by 30 minutes	less reduced after 30 minutes than in the HircB cell line	virtually gone after 90 minutes	substantially maintained over the 90-minute period
